Patent US20230322797A1, “SOLID FORMS, PHARMACEUTICAL COMPOSITIONS AND PREPARATION OF HETEROAROMATIC MACROCYCLIC ETHER COMPOUNDS” (Nuvalent, Inc., priority 2022, published 2023)
Counter-ions that a name gives are not always drawn.

Legend:
[1] = Solubility of Compound 1 salts in organic solvents (solvent volumes); type: physicochemical
Method: Preparation of Additional Salts: Additional salts shown in the Table below were prepared using procedures similar to those described above and the solubility of the resulting salts of Compound 1 was evaluated.

[2] = Solubility of salts of Compound 2 and free base in distilled water (gravimetric); type: physicochemical; conditions: for Solubility (mg solid/mL water): distilled water, RT, stirred 3 days, gravimetric; for XRPD Pattern Recovered: solid recovered after slurry in water at RT
Method: Solubility of the scaled-up salts of Compound 2 and free base Compound 2 was assessed in distilled water at RT. Approximately 30 mg of solid was weighed directly into 2 mL vials, and a 6 mm stir bar was added to each vial. Water was then incrementally added to the vials (starting with 1 vol.) and the resulting slurries were left to stir for 10-15 min prior to the next addition. As all solids remained in slurries upon the addition of 1 mL of water, the gravimetric method was adopted, and the vials were stirred at RT for 3 days before centrifuging. Supernatant solutions were recovered and evaporated to dryness at 50° C. in atmosphere on a hot plate, then placed at 50° C. under vacuum (˜−29 inHg) for 3 h before final weighing.

[3] = Solid-form stability study of salts of Compound 2 (75% RH, 40° C., 7 days); type: physicochemical; conditions: for Purity (%) After / Purity (%) Before: HPLC; for Purity (%) After / XRPD Pattern After: after 7 days at 75% RH and 40° C.; for Purity (%) Before: before stress test
Method: Solid-form stability studies were completed by weighing approximately 30 mg each of Form A of the camsylate, esylate, mesylate, and sulfate salts of Compound 2 into 4 mL vials and covering with a Kimwipe. The vials were placed inside a humidity chamber set to 75% RH at 40° C. for 7 days. The HPLC and XRPD data was collected to confirm the purity and identity of the solid forms. The four salts were physically and chemically stable. No decrease in purity (i.e. less than 0.1%) or form change was observed after a seven-day stress test at 75% relative humidity (RH) and 40° C. (Table 5).

[4] = Salt screen of Compound 2: XRPD after drying and humidification; conditions: vacuum 50° C. at least 3 h, >95% RH overnight
[5] = Desolvation experiments on solvated forms (heating, then XRPD); type: physicochemical; conditions: after desolvation
Method: Desolvation experiments were carried out on the solvated forms identified during the polymorph screen to establish the relationships between the forms. Samples were heated to a temperature at which the solids fully desolvated (based on TG/DSC characterisation data) and where exothermic events were observed after desolvation a separate experiment was carried out to assess for additional solid forms.

| Solubility, Volume (at 10-20° C.) ([1]; 2-MeTHF) | Solubility, Volume (at 10-20° C.) ([1]; Acetone) | Solubility, Volume (at 10-20° C.) ([1]; CPME) | Solubility, Volume (at 10-20° C.) ([1]; EtOAc) | Solubility, Volume (at 10-20° C.) ([1]; IPA) | Solubility, Volume (at 10-20° C.) ([1]; IPAc) | Solubility, Volume (at 10-20° C.) ([1]; MeCN) | Solubility, Volume (at 10-20° C.) ([1]; THF) | Solubility, Volume (at 10-20° C.) ([1]; Toluene) | Solubility, Volume (at 10-20° C.) ([1]; t-AmOH) | Solubility (mg solid/mL water) [2] | XRPD Pattern Recovered [2] | Purity (%) After [3] | Purity (%) Before [3] | XRPD Pattern After [3] | Stability of crystalline salt pattern to drying and humidification [4] | Solid Form post-heating ([5]; target temperature 105 °C) | Solid Form post-heating ([5]; target temperature 150 °C) | SMILES |
| --- | --- | --- | --- | --- | --- | --- | --- | --- | --- | --- | --- | --- | --- | --- | --- | --- | --- | --- |
| 50-60 V | 2-4 V | 220 V | 20-30 V | 70-80 V | 20-30 V | 16-20 V | 2-4 V | >400 V | 6-8 V |  |  |  |  |  |  |  |  | CCn1nc(Cl)c2c1-c1cnc(N)c(c1)O[C@H](C)c1cc(F)ccc1-c1nn(C)cc1C2 [Maleic Acid salt] |
|  |  |  |  |  |  |  |  |  |  | <3 mg solid/mL water | Form A | 99.65% | 99.59% | Form A | stable to drying and humidification |  |  | CCn1cc(Cc2cn(C)nc2-c2ccc(F)cc2[C@@H](C)Oc2cc(Br)cnc2N)c(Cl)n1 [Camsylate Salt] |
| >160 V | 58-60 V | >500 V | >100 V | 140-150 V | >400 V | >400 V | >160 V | >400 V | >400 V |  |  |  |  |  |  |  |  | CCn1nc(Cl)c2c1-c1cnc(N)c(c1)O[C@H](C)c1cc(F)ccc1-c1nn(C)cc1C2 [H3PO4 salt] |
| >400 V | 22-24 V | >500 V | >400 V | 8-10 V | >400 V | 8-10 V | 300-400 V | >400 V | 18-20 V |  |  |  |  |  |  |  |  | CCn1nc(Cl)c2c1-c1cnc(N)c(c1)O[C@H](C)c1cc(F)ccc1-c1nn(C)cc1C2 [HCl salt] |
| >400 V | 56-60 V | >400 V | 300-400 V | 56-60 V | 260-300 V | 6-8 V | 60-100 V | >400 V | 340-360 V |  |  |  |  |  |  |  |  | CCn1nc(Cl)c2c1-c1cnc(N)c(c1)O[C@H](C)c1cc(F)ccc1-c1nn(C)cc1C2 [MSA salt] |
| >400 V | 10-12 V | >400 V | 18-20 V | >400 V | 18-20 V | 8-10 V | 280-300 V | >400 V | >400 V |  |  |  |  |  |  |  |  | CCn1nc(Cl)c2c1-c1cnc(N)c(c1)O[C@H](C)c1cc(F)ccc1-c1nn(C)cc1C2 [TsOH salt] |
|  |  |  |  |  |  |  |  |  |  | 5 mg solid/mL water | Form A | 99.75% | 99.75% | Form A | stable to drying and humidification |  |  | CCn1cc(Cc2cn(C)nc2-c2ccc(F)cc2[C@@H](C)Oc2cc(Br)cnc2N)c(Cl)n1 [Esylate Salt] |
| 8-10 V | 6-8 V | 330 V | >400 V | 24-28 V | >400 V | 300-400 V | 10-12 V | >400 V | 86-90 V |  |  |  |  |  |  |  |  | CCn1nc(Cl)c2c1-c1cnc(N)c(c1)O[C@H](C)c1cc(F)ccc1-c1nn(C)cc1C2 [Citric Acid salt] |
|  |  |  |  |  |  |  |  |  |  |  |  |  |  |  |  | Form 2 | Form 2 | CCn1nc(Cl)c2c1-c1cnc(N)c(c1)O[C@H](C)c1cc(F)ccc1-c1nn(C)cc1C2 [Form 1] |
| 8-10 V | 8-10 V | 50-60 V | 80-90 V | 8-9 V | 90-100 V | 150-200 V | 3-4 V | >400 V | 22-24 V |  |  |  |  |  |  |  |  | CCn1nc(Cl)c2c1-c1cnc(N)c(c1)O[C@H](C)c1cc(F)ccc1-c1nn(C)cc1C2 [Fumaric Acid salt] |
|  |  |  |  |  |  |  |  |  |  |  |  |  |  |  |  |  | Form 2 | CCn1nc(Cl)c2c1-c1cnc(N)c(c1)O[C@H](C)c1cc(F)ccc1-c1nn(C)cc1C2 [Form 9] |
